Experiments:
[1] = tested on: RML prion; type: in vivo, mice; details: Example 1; RML prion i.p.; Campath 100 μg i.v.
[2] = tested on: Tg2576 Tg+ mice; test: Tg2576 mouse model of Alzheimer's disease (Example 2); type: in vivo; details: 100 μg i.v. weekly for 6 months
Procedure: Ten-month-old male and female Tg2576 Tg+ and Tg− are used (n=10 animals/group). Tg+ mice are treated with Campath 100 μg i.v. weekly for 6 months or placebo (saline), respectively before being sacrificed. TG− mice served as controls Animals are perfused before brain dissection with 0.9% normal saline followed by HEPES buffer, pH 7.2, containing protease inhibitors. […] Tg+ mice fed chow containing ibuprofen for 6 months serve as positive treatment control.

[3] = tested on: mouse model for Alzheimer's disease; details: literature, Lim et al. 2000; cited from earlier work

Compound | inhibition of the spread of prions in an animal model [1] | activity in a mouse model of Alzheimer's disease [2] | plaque pathology and inflammation in a mouse model for Alzheimer's disease [3]
alemtuzumab [Campath] | can inhibit the spread of prions | active | 
CC(C)Cc1ccc(C(C)C(=O)O)cc1 (stereo not drawn) [Ibuprofen] |  |  | suppresses plaque pathology and inflammation

— patent US20100178293A1 (priority 2007, published 2010)
